Test results taken from publication PMC3758303 (PLoS ONE, 2013).

Legend:
[1] = tested on: genome-length HCV-RNA (1B-4 strain of genotype 1b) replication in HuH-7-derived 1B-4R cells; test: 1B-4R RL assay; format: cell-based; conditions: Hepatitis C virus, 1B-4R assay, HuH-7, HCV strain 1B-4, 72 hrs
Method: (§1) RSc and D7 cells were derived from the cell lines HuH-7 and Li23, respectively, were cultured as described previously, [29]. HuH-7-derived OR6 [13], AH1R [30], and 1B-4R [Ikeda et al., submitted] cells harboring genome-length HCV-RNA and HuH-7-derived polyclonal sOR [31], and RSc-JRN/35B [Ikeda et al., submitted] cells harboring an HCV subgenomic replicon were cultured with medium in the presence of G418 (0.3 mg/ml; Geneticin, Invitrogen, Carlsbad, CA) as described previously. Li23-derived ORL8 [20], ORL11 [20], 1B-4RL [Ikeda et al., submitted], and KAH5RL [Ikeda et al., submitted] cells harboring genome-length HCV-RNA were maintained with medium in the presence of G418 (0.3 mg/ml) as described previously. Li23-derived polyclonal sORL8 and sORL11 cells harboring an HCV replicon, which were established by the transfection of ORN/3-5B/QR,KE,SR RNA into the cured OL8 and OL11 cells, respectively, were also cultured with medium in the presence of G418 (0.3 mg/ml) as described previously. Cured cells, from which the HCV-RNA had been eliminated by IFN treatment, were also maintained with medium in the absence of G418 as described previously. […] Therefore, when HCV-RNA is excluded from the cells or when its level is decreased, the cells are killed in the presence of G418. […]
(§2) The SI value of each reagent was determined by dividing the CC50 value by the EC50 value.

[2] = tested on: genome-length HCV-RNA (O strain of genotype 1b) replication in Li23-derived ORL11 cells; test: ORL11 RL assay; format: cell-based; conditions: Hepatitis C virus, 72 hrs
Method: as §1, §2

[3] = WST-1 cell proliferation assay, 1B-4RL cells; format: cell-based; conditions: human
Method: (§3) The WST-1 cell proliferation assay was performed as described previously. Briefly, The cells were plated onto 96-well plates (1×10^3 cells per well) in triplicate and then treated with each reagent at several concentrations for 72 hrs. After treatment, the cells were subjected to the WST-1 cell proliferation assay (Takara Bio, Otsu, Japan) according to the manufacturer’s protocol. This assay is based on the enzymatic cleavage of the tetrazolium salt WST-1 to formazan by cellular mitochondrial dehydrogenases present in viable cells. Therefore, there are […] the value of the WST-1 assay becomes zero. The experiments were performed at least in triplicate. From the assay results, the 50% cytotoxic concentration (CC50) of each reagent was determined.

[4] = tested on: genome-length HCV-RNA (KAH5 strain of genotype 1b) replication in Li23-derived KAH5RL cells; test: KAH5RL RL assay; format: cell-based; conditions: Hepatitis C virus, Li23, HCV strain KAH5, 72 hrs
Method: as §1, §2

[5] = WST-1 cell proliferation assay, sOR cells; format: cell-based; conditions: human
Method: as §3

[6] = WST-1 cell proliferation assay, sORL8 cells; format: cell-based; conditions: human
Method: as §3

[7] = tested on: HCV-JFH-1 strain (genotype 2a) in HuH-7-derived RSc cells; test: JFH-1 reporter assay system, RSc cells; format: cell-based, hepatitis C virus; conditions: RSc cells inoculated with JR/C5B/BX-2 supernatant, RL assay
Method: HCV infection was performed as described previously. RSc and D7 cells were inoculated with supernatant from RSc cells replicating JR/C5B/BX-2 [29].
Figure 2 Characterization of anti-HCV activities of N-89 and N-251. (A) Schematic gene organization of authentic HCV-RNA (HCV-O/RLGE). The positions of four adaptive mutations - Q1112R, P1115L, E1202G, and K1609E - are indicated by a black star. (B) N-89 and N-251 inhibited authentic HCV-RNA replication. The cells harboring HCV-O/RLGE RNA [19] were treated with N-89 (left panel) and N-251 (right panel) for 72 hrs, followed by real-time LightCycler PCR (black circles in the upper panel) and WST-1 assay (open triangles in the upper panel). The relative value (%) calculated at each point, when the level in non-treated cells was assigned as 100%, is presented here. Data are expressed as the means±standard deviation of triplicate assays. Western blot analysis (lower panels) was performed as described in Fig. 1B. […]
We next examined whether N-89 and N-251 worked in an HCV production system using HCV-JFH-1 strain (genotype 2a). […] To clarify whether anti-HCV activity depends on the difference of genotype or assay model, we evaluated the activities of N-89 and N-251 using RSc-JRN/35B [Ikeda et al., submitted] cells harboring a subgenomic HCV-JFH-1 replicon as an additional assay.

[8] = molecular target: T1, renilla luciferase (RL) activity (Renilla reniformis, UniProt P27652); test: Direct effect on RL activity in cell lysate; format: biochemical
T1 construct: expressed in transfected cells; host or cells: OR6 (HuH-7-derived) and ORL8 (Li23-derived) cells harbouring genome-length HCV-RNA that encodes RL; cell lysate
Excerpt: The genome-length HCV-RNA used in the assay systems described above contains three non-natural elements: RL, neomycin phosphotransferase, and an internal ribosomal entry site of encephalomyocarditis virus. To exclude the possibility that the anti-HCV activity of N-89 or N-251 was due to the inhibition of these three exogenous elements, we examined the anti-HCV activities of N-89 and N-251 using the authentic 9.6 kb HCV-RNA-replicating HCV-O/RLGE cells, which were developed by the introduction of in vitro synthesized HCV-O/RLGE RNA (Fig. 2A) into OR6c cured cells.
Supplementary file pone.0072519.s002.tif: Figure S2 No inhibition of RL activity by N-89 or N-251. […] N-89 or N-251 was added to the OR6 cell lysate, and then an RL assay was performed. […] N-89 or N-251 was added to the ORL8 cell lysate, and then an RL assay was performed. (TIF) Click here for additional data file.

[9] = set-up: method as in Kim et al., unpublished data; conditions: ref Kim et al., unpublished data; cited from earlier work
[10] = reagent added along with substrate to OR6 cell lysate
[11] = reagent added along with substrate to ORL8 cell lysate

T1 sequence (P27652 whole entry): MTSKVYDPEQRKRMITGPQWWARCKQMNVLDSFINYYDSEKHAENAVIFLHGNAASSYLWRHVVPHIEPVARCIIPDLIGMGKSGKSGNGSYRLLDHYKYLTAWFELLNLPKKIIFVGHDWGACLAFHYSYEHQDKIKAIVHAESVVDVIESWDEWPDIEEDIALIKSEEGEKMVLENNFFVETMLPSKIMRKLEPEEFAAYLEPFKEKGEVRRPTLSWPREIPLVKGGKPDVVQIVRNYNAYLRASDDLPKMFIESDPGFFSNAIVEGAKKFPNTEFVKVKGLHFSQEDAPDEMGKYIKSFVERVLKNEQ

## C1CCCCCC2(CCCCC1)OOCCCOO2 [N-89, 1,2,6,7-Tetraoxaspiro[7.11]nonadecane]
[1]
  EC50: 0.42 µM
[2]
  EC50: 0.045 µM
[3]
  CC50 at 72 h: 2.4 µM
[4]
  EC50: 0.19 µM
[5]
  CC50 at 72 h: 1.7 µM
[6]
  CC50 at 72 h: 1.1 µM
[7]
  anti-HCV activity for the HCV-JFH-1 strain: did not show anti-HCV activity
[8]; [10]
  direct effect on RL activity: No suppressive effects
[8]; [11]
  direct effect on RL activity: No suppressive effects
[9]
  blood concentration: approximately 1 µM

## OCCCCCCC1COOC2(CCCCCCCCCCC2)OOC1 [N-251, 6-(1,2,6,7-tetraoxaspiro[7.11]nonadec-4-yl)hexan-1-ol]
[1]
  EC50: 0.98 µM
[2]
  EC50: 0.059 µM
[3]
  CC50 at 72 h: 1.9 µM
[4]
  EC50: 0.29 µM
[5]
  CC50 at 72 h: 2.2 µM
[6]
  CC50 at 72 h: 4.1 µM
[7]
  anti-HCV activity for the HCV-JFH-1 strain: did not show anti-HCV activity
[8]; [10]
  direct effect on RL activity: No suppressive effects
[8]; [11]
  direct effect on RL activity: No suppressive effects
[9]
  blood concentration: approximately 1 µM
